29 molecules from ChEMBL document CHEMBL4196070, “Development of Piperazinediones as dual inhibitor for treatment of Alzheimer's disease” (Eur J Med Chem, 2018) can be followed below.

Series [1] can be described thus: Permeability of the compound at 25 ug/ml after 18 hrs by PAMPA-BBB assay. The settings on record: read-out: permeability. The class given is ADME. On the technique in general: In PAMPA a lipid-coated filter parts donor from acceptor wells.
The next series has as its target Cholinesterase (Equus caballus, UniProt P81908). Description: Inhibition of equine serum BuChE using butyrylthiocholine iodide as substrate preincubated for 30 mins followed by substrate addition and measured for 20 mins at 1 min interval by Ellman's method. A general note: Ellman's reagent forms a yellow product with free thiols.
For series [2], the target named is T1, 72 kDa type IV collagenase (Homo sapiens, UniProt P08253). Description: Inhibition of human MMP2 using Mca-Pro-Leu-Gly-Leu-Dpa-Ala-Arg-NH as substrate preincubated for 60 mins followed by substrate addition by fluorescence analysis.
T1 sequence (P08253 whole entry): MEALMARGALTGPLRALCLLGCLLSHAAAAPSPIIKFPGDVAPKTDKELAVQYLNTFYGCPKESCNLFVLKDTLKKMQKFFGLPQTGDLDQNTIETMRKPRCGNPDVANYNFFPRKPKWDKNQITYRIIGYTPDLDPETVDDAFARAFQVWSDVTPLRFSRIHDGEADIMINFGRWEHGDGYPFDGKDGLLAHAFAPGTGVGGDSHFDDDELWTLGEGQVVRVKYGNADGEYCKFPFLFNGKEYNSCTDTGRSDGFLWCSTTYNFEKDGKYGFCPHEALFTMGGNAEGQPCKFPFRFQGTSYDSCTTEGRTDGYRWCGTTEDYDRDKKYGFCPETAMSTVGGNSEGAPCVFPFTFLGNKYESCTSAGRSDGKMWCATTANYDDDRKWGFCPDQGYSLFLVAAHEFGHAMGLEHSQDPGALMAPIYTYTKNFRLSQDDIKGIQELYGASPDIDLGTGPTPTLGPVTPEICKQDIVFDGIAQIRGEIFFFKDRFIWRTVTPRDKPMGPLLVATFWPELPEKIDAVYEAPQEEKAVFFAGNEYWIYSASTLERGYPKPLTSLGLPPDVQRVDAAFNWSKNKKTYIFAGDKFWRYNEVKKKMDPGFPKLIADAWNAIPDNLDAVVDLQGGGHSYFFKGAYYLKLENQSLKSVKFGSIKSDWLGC
The target of series [3] is T2, Acetylcholinesterase (Electrophorus electricus, UniProt O42275). Description: Inhibition of electric eel AChE using acetylthiocholine iodide as substrate preincubated for 30 mins followed by substrate addition and measured for 20 mins at 1 min interval by Ellman's method.
T2 sequence (O42275 whole entry): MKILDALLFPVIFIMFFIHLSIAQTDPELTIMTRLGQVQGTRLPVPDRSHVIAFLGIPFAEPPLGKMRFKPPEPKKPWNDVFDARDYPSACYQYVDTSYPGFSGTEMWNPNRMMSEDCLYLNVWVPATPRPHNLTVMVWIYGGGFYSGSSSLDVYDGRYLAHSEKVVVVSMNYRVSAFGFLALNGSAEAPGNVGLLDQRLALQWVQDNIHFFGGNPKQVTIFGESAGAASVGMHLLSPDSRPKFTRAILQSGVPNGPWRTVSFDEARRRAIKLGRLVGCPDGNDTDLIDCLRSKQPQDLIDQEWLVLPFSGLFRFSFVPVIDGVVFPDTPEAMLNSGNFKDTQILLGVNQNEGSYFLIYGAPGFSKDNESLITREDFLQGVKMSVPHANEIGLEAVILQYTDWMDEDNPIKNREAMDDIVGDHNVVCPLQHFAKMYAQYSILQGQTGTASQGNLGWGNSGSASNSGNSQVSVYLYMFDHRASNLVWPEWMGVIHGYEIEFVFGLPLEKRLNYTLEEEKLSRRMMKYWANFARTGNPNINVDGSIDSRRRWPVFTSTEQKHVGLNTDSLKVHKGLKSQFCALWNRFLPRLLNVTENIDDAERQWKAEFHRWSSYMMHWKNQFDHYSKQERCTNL
The test system of another series is Rattus norvegicus. Description: Toxicity in Wistar rat assessed as mortality at 300 mg/kg measured for 72 hrs. The format is organism-based. The conditions noted are these: in vivo.
Series [4] in a line: Toxicity in Wistar rat measured for 72 hrs. The conditions noted are these: in vivo. The format is organism-based.
Another series relates to Mus musculus. Description: Effect on locomotive behavior in Swiss albino mouse at 5 to 20 mg/kg, ip administered once daily for 7 days prior to 4 hrs of training and measured after 5 mins by Y-maze test. The format is ADME, organism-based. The settings on record: in vivo.
Series [5] addresses T2, Acetylcholinesterase. Description: Non-competitive inhibition of electric eel AChE using acetylthiocholine iodide as substrate preincubated for 30 mins followed by substrate addition by Dixon plot analysis.
Series [6] has as its target T1, 72 kDa type IV collagenase. Description: Competitive inhibition of human MMP2 using Mca-Pro-Leu-Gly-Leu-Dpa-Ala-Arg-NH as substrate preincubated for 60 mins followed by substrate addition by secondary plot analysis.
A short description of series [7]: Neuroprotective activity against tetracycline removal-induced cytotoxicity in human MC65 cells assessed as cell viability at 70 uM after 12 hrs by MTT assay relative to control. The class given is functional. The conditions noted are these: MC65, 12 h, read-out: Activity. For orientation: Tetrazolium assays rely on reduction of a dye to a coloured formazan, in cell work by metabolically active cells.

Chain of Cholinesterase (P81908 whole entry): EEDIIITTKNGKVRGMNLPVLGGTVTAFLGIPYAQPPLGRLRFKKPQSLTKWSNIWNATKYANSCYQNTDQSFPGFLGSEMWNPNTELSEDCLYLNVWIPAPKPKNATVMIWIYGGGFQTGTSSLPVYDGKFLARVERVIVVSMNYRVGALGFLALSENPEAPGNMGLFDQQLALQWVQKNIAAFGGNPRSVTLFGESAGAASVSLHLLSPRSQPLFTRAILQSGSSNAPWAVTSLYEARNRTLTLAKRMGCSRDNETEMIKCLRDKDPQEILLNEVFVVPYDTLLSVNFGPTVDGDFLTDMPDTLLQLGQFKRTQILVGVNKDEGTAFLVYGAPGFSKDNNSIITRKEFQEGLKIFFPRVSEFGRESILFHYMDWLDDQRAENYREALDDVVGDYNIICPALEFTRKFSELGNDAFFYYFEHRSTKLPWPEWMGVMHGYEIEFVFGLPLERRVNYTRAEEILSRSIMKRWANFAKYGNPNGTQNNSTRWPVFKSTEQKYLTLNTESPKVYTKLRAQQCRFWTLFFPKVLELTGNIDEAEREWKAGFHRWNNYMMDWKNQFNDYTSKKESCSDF

Take `COc1ccc(S(=O)(=O)N2CC(=O)N(S(=O)(=O)c3ccc(OC)cc3)CC2=O)cc1`: the Papp at 18 h, 25 ug/ml in series [1] was 6.46 ×10⁻⁶ cm/s. In addition, the figures for the IC50 (against Cholinesterase; in [2]; on Acetylcholinesterase [3]) were above 200 nM, 75.3 nM and 91.5 nM, respectively.

Take `O=C1C(c2ccccc2)N(S(=O)(=O)c2ccc(Br)cc2)C(=O)C(c2ccccc2)N1S(=O)(=O)c1ccc(Br)cc1` (centres undefined): the Papp at 18 h, 25 ug/ml in [1] came out at 8.31 ×10⁻⁶ cm/s. Moreover, the half-maximal inhibitory concentration (IC50) against Cholinesterase came out at 183 nM; in series [2] it was 32.7 nM; on Acetylcholinesterase [3], 50.6 nM.

As for `O=C1C(c2ccccc2)N(S(=O)(=O)c2ccc([N+](=O)[O-])cc2)C(=O)C(c2ccccc2)N1S(=O)(=O)c1ccc([N+](=O)[O-])cc1` (centres undefined), in [1], the Papp at 18 h, 25 ug/ml came to 4.63 ×10⁻⁶ cm/s. Moreover, the IC50 against Cholinesterase was found to be 176 nM; in series [2], 33.5 nM; at Acetylcholinesterase [3], 60.8 nM.

For `Nc1ccc(S(=O)(=O)N2C(=O)C(c3ccccc3)N(S(=O)(=O)c3ccc(N)cc3)C(=O)C2c2ccccc2)cc1` (centres undefined), in [1], the Papp at 18 h, 25 ug/ml came to 5.53 ×10⁻⁶ cm/s. Moreover, the IC50 on Cholinesterase was above 200 nM; in series [2], 50.6 nM; on Acetylcholinesterase [3] it was 91.3 nM.

For the molecule `Nc1ccc(S(=O)(=O)N2CC(=O)N(S(=O)(=O)c3ccc(N)cc3)CC2=O)cc1`, the Papp at 18 h, 25 ug/ml in series [1] worked out at 6.1 ×10⁻⁶ cm/s. Also, the results for the IC50 (at Cholinesterase; in [2]; against Acetylcholinesterase [3]) were above 200 nM, 53.1 nM and 86.3 nM, respectively.

In the case of `O=C1C(c2ccccc2)N(S(=O)(=O)c2ccc(Cl)cc2)C(=O)C(c2ccccc2)N1S(=O)(=O)c1ccc(Cl)cc1` (centres undefined), in series [1], the Papp at 18 h, 25 ug/ml is 7.38 ×10⁻⁶ cm/s. Further, the Activity result is “Toxic” with Rattus norvegicus and “Non-Toxic” in the series on Mus musculus. Moreover, the half-maximal inhibitory concentration (IC50) on Cholinesterase was found to be 161 nM; in series [2], 19.6 nM; against Acetylcholinesterase [3], 28.6 nM. Also, the median lethal dose (LD50) at 72 h in [4] stood at 200 mg/kg. Besides, the inhibition constant (Ki) at Acetylcholinesterase [5] was found to be 7 nM; in [6], 20 nM. Besides, the viability at 70 µM in [7] was 99.4%.

As for `CN(C)CCCN1c2ccccc2Sc2ccc(Cl)cc21` [CHLORPROMAZINE], in series [1], the Papp at 18 h, 25 ug/ml lay within 5.9 to 6.5 ×10⁻⁶ cm/s.

With `CCCCS(=O)(=O)N1CC(=O)N(S(=O)(=O)CCCC)CC1=O`, in series [1], the Papp at 18 h, 25 ug/ml was found to be 1.06 ×10⁻⁶ cm/s. Moreover, the concentration for half-maximal inhibition (IC50) against Cholinesterase was above 200 nM; in series [2], above 1000 nM; on Acetylcholinesterase [3], above 200 nM.

As to `O=C1C(c2ccccc2)N(S(=O)(=O)c2cccc(Br)c2)C(=O)C(c2ccccc2)N1S(=O)(=O)c1cccc(Br)c1` (centres undefined), the Papp at 18 h, 25 ug/ml in [1] was determined as 9.45 ×10⁻⁶ cm/s. The IC50 on Cholinesterase is 193 nM; in series [2], 54.7 nM; against Acetylcholinesterase [3], 76.6 nM.

`Cc1ccc(S(=O)(=O)N2C(=O)C(c3ccccc3)N(S(=O)(=O)c3ccc(C)cc3)C(=O)C2c2ccccc2)cc1` (centres undefined): the Papp at 18 h, 25 ug/ml in series [1] was found to be 11.3 ×10⁻⁶ cm/s. Also, the results for the IC50 (at Cholinesterase; in series [2]; at Acetylcholinesterase [3]) were above 200 nM, 62.9 nM and 76.4 nM, respectively.

Consider `O=C1CN(S(=O)(=O)c2ccccc2)C(=O)CN1S(=O)(=O)c1ccccc1`, for which the 50% inhibitory concentration (IC50) on Cholinesterase is above 200 nM; in series [2], 82.2 nM; against Acetylcholinesterase [3], 98.5 nM.

On to `Cc1nnc2n1-c1ccc(Cl)cc1C(c1ccccc1)=NC2` [ALPRAZOLAM], for which, in [1], the Papp at 18 h, 25 ug/ml was in the range of 4.6 to 5.4 ×10⁻⁶ cm/s.

For `O=C1C(Cc2ccccc2)N(S(=O)(=O)c2cccc(Br)c2)C(=O)C(Cc2ccccc2)N1S(=O)(=O)c1cccc(Br)c1` (centres undefined), in [1], the Papp at 18 h, 25 ug/ml amounted to 8.06 ×10⁻⁶ cm/s. Moreover, the IC50 stood at 191 nM at Cholinesterase, 58.1 nM in series [2] and 76.7 nM on Acetylcholinesterase [3].

With `CC(=O)[C@H]1CC[C@H]2[C@@H]3CCC4=CC(=O)CC[C@]4(C)[C@H]3CC[C@]12C` [PROGESTERONE], the Papp at 18 h, 25 ug/ml in series [1] was 9.3 to 15.8 ×10⁻⁶ cm/s.

As for `O=C1CN(S(=O)(=O)c2ccc(F)cc2)C(=O)CN1S(=O)(=O)c1ccc(F)cc1`, the Papp at 18 h, 25 ug/ml in series [1] is 10.3 ×10⁻⁶ cm/s. Further, the IC50 came out at 186 nM against Cholinesterase, 55.1 nM in series [2] and 78.3 nM against Acetylcholinesterase [3].

`O=C1CN(S(=O)(=O)c2ccc(Br)cc2)C(=O)CN1S(=O)(=O)c1ccc(Br)cc1`: in series [1], the Papp at 18 h, 25 ug/ml worked out at 8.87 ×10⁻⁶ cm/s. Besides, the IC50 against Cholinesterase came to 191 nM; in series [2], 54.7 nM; against Acetylcholinesterase [3], 81.8 nM.

As to `O=C1C(Cc2ccccc2)N(S(=O)(=O)c2ccc([N+](=O)[O-])cc2)C(=O)C(Cc2ccccc2)N1S(=O)(=O)c1ccc([N+](=O)[O-])cc1` (centres undefined), the Papp at 18 h, 25 ug/ml in series [1] turned out to be 4.49 ×10⁻⁶ cm/s. In addition, the 50% inhibitory concentration (IC50) was determined as 163 nM on Cholinesterase, 53.8 nM in series [2] and 57.4 nM at Acetylcholinesterase [3].

Consider `CCn1cc(C(=O)O)c(=O)c2cc(F)c(N3CCNC(C)C3)c(F)c21` (centres undefined) [LOMEFLOXACIN], for which, in series [1], the Papp at 18 h, 25 ug/ml lay in the range of 0.31 to 1.1 ×10⁻⁶ cm/s.

As to `O=C1CN(S(=O)(=O)c2cccc(Cl)c2)C(=O)CN1S(=O)(=O)c1cccc(Cl)c1`, the Papp at 18 h, 25 ug/ml in series [1] was 8.37 ×10⁻⁶ cm/s. Also, the IC50 at Cholinesterase was 197 nM; in series [2], 58 nM; on Acetylcholinesterase [3] it was 66.7 nM.

`CCCS(=O)(=O)N1CC(=O)N(S(=O)(=O)CCC)CC1=O`: the Papp at 18 h, 25 ug/ml in series [1] amounted to 0.89 ×10⁻⁶ cm/s. Also, the results for the half-inhibitory concentration (IC50) (against Cholinesterase; in [2]; on Acetylcholinesterase [3]) were above 200 nM, above 1000 nM and above 200 nM, respectively.

For `O=C1C(c2ccccc2)N(S(=O)(=O)c2ccc(O)cc2)C(=O)C(c2ccccc2)N1S(=O)(=O)c1ccc(O)cc1` (centres undefined), the Papp at 18 h, 25 ug/ml in series [1] worked out at 6.84 ×10⁻⁶ cm/s. Also, the IC50 at Cholinesterase was above 200 nM; in series [2] it was 57.2 nM; on Acetylcholinesterase [3] it was 84.2 nM.

As to `Cc1ccc(S(=O)(=O)N2CC(=O)N(S(=O)(=O)c3ccc(C)cc3)CC2=O)cc1`, the Papp at 18 h, 25 ug/ml in series [1] stood at 10.4 ×10⁻⁶ cm/s. For the same molecule, the values for the half-maximal inhibitory concentration (IC50) (against Cholinesterase; in [2]; against Acetylcholinesterase [3]) were above 200 nM, 86.7 nM and 118 nM, respectively.

For the molecule `O=C1C(Cc2ccccc2)N(S(=O)(=O)c2ccc(Br)cc2)C(=O)C(Cc2ccccc2)N1S(=O)(=O)c1ccc(Br)cc1` (centres undefined), the Papp at 18 h, 25 ug/ml in [1] was 7.29 ×10⁻⁶ cm/s. Further, the 50% inhibitory concentration (IC50) on Cholinesterase is 181 nM; in series [2] it was 38.7 nM; on Acetylcholinesterase [3], 57 nM.

In the case of `Cc1cccc(S(=O)(=O)N2C(=O)C(c3ccccc3)N(S(=O)(=O)c3cccc(C)c3)C(=O)C2c2ccccc2)c1` (centres undefined), the Papp at 18 h, 25 ug/ml in series [1] is 11.8 ×10⁻⁶ cm/s. The 50% inhibitory concentration (IC50) at Cholinesterase is above 200 nM; in series [2], 73.8 nM; on Acetylcholinesterase [3] it was 83.9 nM.

With `O=C1C(Cc2ccccc2)N(S(=O)(=O)c2ccc(Cl)cc2)C(=O)C(Cc2ccccc2)N1S(=O)(=O)c1ccc(Cl)cc1` (centres undefined), in series [1], the Papp at 18 h, 25 ug/ml came to 12.3 ×10⁻⁶ cm/s. For the same molecule, the Activity entry in the series on Rattus norvegicus is listed as “Toxic”; in the series with Mus musculus, “Non-Toxic”. Also, the half-inhibitory concentration (IC50) at Cholinesterase turned out to be 158 nM; in [2], 36.8 nM; against Acetylcholinesterase [3], 32.5 nM. The molecule further returned a 50% lethal dose (LD50) at 72 h in [4] of 200 mg/kg.

Turning to `O=C1CN(S(=O)(=O)c2ccc(Cl)cc2)C(=O)CN1S(=O)(=O)c1ccc(Cl)cc1`, in [1], the Papp at 18 h, 25 ug/ml was found to be 6.43 ×10⁻⁶ cm/s. The 50% inhibitory concentration (IC50) was 180 nM against Cholinesterase, 49.7 nM in [2] and 61.6 nM on Acetylcholinesterase [3].

Consider `NCCc1ccc(O)c(O)c1` [DOPAMINE], for which, in series [1], the Papp at 18 h, 25 ug/ml fell in the range of 0.17 to 0.2 ×10⁻⁶ cm/s.

As for `O=C1C(Cc2ccccc2)N(S(=O)(=O)c2cccc(O)c2)C(=O)C(Cc2ccccc2)N1S(=O)(=O)c1cccc(O)c1` (centres undefined), the Papp at 18 h, 25 ug/ml in series [1] was determined as 6.36 ×10⁻⁶ cm/s. In addition, the IC50 against Cholinesterase was above 200 nM; in [2], 83 nM; at Acetylcholinesterase [3], 69.8 nM.

As to `O=C1C(Cc2ccccc2)N(S(=O)(=O)c2ccc(O)cc2)C(=O)C(Cc2ccccc2)N1S(=O)(=O)c1ccc(O)cc1` (centres undefined), the Papp at 18 h, 25 ug/ml in series [1] was 5.68 ×10⁻⁶ cm/s. Further, the half-maximal inhibitory concentration (IC50) against Cholinesterase turned out to be 199 nM; in series [2], 72 nM; against Acetylcholinesterase [3], 59.5 nM.

As a reminder, the IC50 is the concentration that gives 50% inhibition. A word on the LD50: it is the dose at which mortality reaches 50%. Low values mean a more toxic substance, high ones a less toxic substance. A word on the Ki: it is the equilibrium dissociation constant of an inhibitor or competing ligand from its target.
